Experimental data: patent publication US10300071B2, “Compositions and methods for inhibition of mycobacteria” (priority 2014, dated 2019)
Values after ≈ are worked out from the molar mass of the structure shown. Read-outs that look alike come from different tables or passages of the source.

Columns and labels:
[1] = system: Mtb strain mc^2-7000; assay: microbe, parasite or virus in culture; type: cell-based, Mycobacterium tuberculosis; details: 6 days incubation at 37° C., resazurin, read on the 7th day
[2] = system: S. cerevisiae
[3] = target: Mtb AccD6 (Mycobacterium tuberculosis, UniProt P9WQH5); assay: biochemical; type: biochemical; details: for IC50: 300 μM malonyl-CoA, inhibitor 10 μM to 2000 μM; for inhibition at 20 µM: read-out: inhibition at 20 uM
Chain of Mtb AccD6 (P9WQH5 whole entry, looked up): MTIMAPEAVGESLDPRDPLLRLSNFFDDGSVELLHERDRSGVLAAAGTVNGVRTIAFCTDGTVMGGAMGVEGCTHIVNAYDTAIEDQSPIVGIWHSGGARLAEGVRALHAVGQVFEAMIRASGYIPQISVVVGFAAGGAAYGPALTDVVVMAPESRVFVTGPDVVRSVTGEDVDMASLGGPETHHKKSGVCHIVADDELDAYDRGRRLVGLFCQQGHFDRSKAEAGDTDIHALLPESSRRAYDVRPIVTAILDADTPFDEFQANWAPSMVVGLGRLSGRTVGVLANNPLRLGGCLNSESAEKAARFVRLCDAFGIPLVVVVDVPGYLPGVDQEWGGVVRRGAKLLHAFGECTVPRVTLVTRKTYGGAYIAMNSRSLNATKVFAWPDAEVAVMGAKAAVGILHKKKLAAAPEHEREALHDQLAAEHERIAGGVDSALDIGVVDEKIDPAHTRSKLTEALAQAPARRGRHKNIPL

[4] = system: human fibroblast
[5] = Mycobacterium tuberculosis, 144 h, read-out: MIC

CNC(=O)Cc1ccc(Oc2nc3cc(F)c(F)cc3s2)cc1 [NZ-400, 2-{4-[(5,6-difluoro-1,3-benzothiazol-2-yl)oxy]phenyl}-N-methylacetamide]
MIC [1, 5]: 0.61 µM (≈ 0.204 µg/mL) | concentrations at which not toxic, s. cerevisiae cytotoxicity [2]: ≥ 100 µM | IC50 ([3]; read-out: IC50): 210 nM | concentrations at which not toxic, human fibroblast cytotoxicity [4]: ≥ 100 µM

COC(=O)Cc1ccc(Oc2nc3ccc(F)cc3s2)cc1 [NZ-294, methyl 2-{4-[(6-fluoro-1,3-benzothiazol-2-yl)oxy]phenyl}acetate]
MIC [1, 5]: 3 µM | concentrations at which not toxic, s. cerevisiae cytotoxicity [2]: ≥ 100 µM | IC50 ([3]; read-out: IC50): 12500 nM | concentrations at which not toxic, human fibroblast cytotoxicity [4]: ≥ 100 µM

CC(C(=O)N1CCN(C)CC1)c1ccc(Oc2nc3ccc(Cl)cc3s2)cc1 (stereo not shown) [NZ-366, 2-{4-[(6-chloro-1,3-benzothiazol-2-yl)oxy]phenyl}-1-(4-methylpiperazin-1-yl)propan-1-one]
MIC [1, 5]: 0.56 µM (≈ 0.233 µg/mL) | concentrations at which not toxic, s. cerevisiae cytotoxicity [2]: 25 to 50 µM | IC50 ([3]; read-out: IC50): 4900 nM | concentrations at which not toxic, human fibroblast cytotoxicity [4]: 25 to 50 µM

O=C(O)C(O)c1ccc(Oc2nc3ccc(Cl)cc3s2)cc1 (stereo not shown) [NZ-337, 2-{4-[(6-chloro-1,3-benzothiazol-2-yl)oxy]phenyl}-2-hydroxyacetic acid]
MIC [1, 5]: 25 µM (≈ 8.39 µg/mL) | concentrations at which not toxic, s. cerevisiae cytotoxicity [2]: ≥ 100 µM | IC50 ([3]; read-out: IC50): 2300 nM | concentrations at which not toxic, human fibroblast cytotoxicity [4]: ≥ 100 µM

CC(C(=O)N1CCNCC1)c1ccc(Oc2nc3ccc(Cl)cc3s2)cc1 (stereo not shown) [NZ-364, 2-{4-[(6-chloro-1,3-benzothiazol-2-yl)oxy]phenyl}-1-(piperazin-1-yl)propan-1-one]
MIC [1, 5]: 1.34 µM (≈ 0.539 µg/mL) | concentrations at which not toxic, s. cerevisiae cytotoxicity [2]: ≥ 100 µM | inhibition at 20 µM [3]: 20% | concentrations at which not toxic, human fibroblast cytotoxicity [4]: ≥ 100 µM

CNC(=O)Cc1ccc(Oc2nc3cc(F)c(F)cc3s2)cc1O [NZ-401, 2-{4-[(5,6-difluoro-1,3-benzothiazol-2-yl)oxy]-2-hydroxyphenyl}-N-methylacetamide]
MIC [1, 5]: 0.54 µM (≈ 0.189 µg/mL) | concentrations at which not toxic, s. cerevisiae cytotoxicity [2]: ≥ 100 µM | IC50 ([3]; read-out: IC50): 120 nM | concentrations at which not toxic, human fibroblast cytotoxicity [4]: ≥ 100 µM

CC(C)NC(=O)Nc1ccc(Oc2nc3cc(Cl)ccc3s2)cc1 [NZ-376, 1-{4-[(5-chloro-1,3-benzothiazol-2-yl)oxy]phenyl}-3-(propan-2-yl)urea]
MIC [1]: Not Active | concentrations at which not toxic, s. cerevisiae cytotoxicity [2]: ≥ 100 µM | IC50 ([3]; read-out: IC50): 874 nM | concentrations at which not toxic, human fibroblast cytotoxicity [4]: ≥ 100 µM

CC(C)NC(=O)Nc1ccc(Oc2nc3c(F)cccc3s2)cc1 [NZ-374, 1-{4-[(4-fluoro-1,3-benzothiazol-2-yl)oxy]phenyl}-3-(propan-2-yl)urea]
MIC [1]: Not Active | concentrations at which not toxic, s. cerevisiae cytotoxicity [2]: ≥ 100 µM | IC50 [3]: Not Active | concentrations at which not toxic, human fibroblast cytotoxicity [4]: ≥ 100 µM

CC(C(=O)N(C)C)c1ccc(Oc2nc3ccc(Cl)cc3s2)cc1 (stereo not shown) [NZ-368, 2-{4-[(6-chloro-1,3-benzothiazol-2-yl)oxy]phenyl}-N,N-dimethylpropanamide]
MIC [1, 5]: 2.07 µM (≈ 0.747 µg/mL) | concentrations at which not toxic, s. cerevisiae cytotoxicity [2]: 25 to 50 µM | IC50 ([3]; read-out: IC50): 3600 nM | concentrations at which not toxic, human fibroblast cytotoxicity [4]: ≥ 100 µM

CNC(=O)Cc1ccc(Oc2cnc3cc(Cl)ccc3n2)cc1O [NZ-402, 2-{4-[(6-chloroquinoxalin-2-yl)oxy]-2-hydroxyphenyl}-N-methylacetamide]
MIC [1, 5]: 2.16 µM (≈ 0.743 µg/mL) | concentrations at which not toxic, s. cerevisiae cytotoxicity [2]: ≥ 100 µM | IC50 ([3]; read-out: IC50): 210 nM | concentrations at which not toxic, human fibroblast cytotoxicity [4]: ≥ 100 µM

COc1ccc2nc(Oc3ccc(C(C)C(=O)O)cc3)sc2c1 (stereo not shown) [NZ-334, 2-{4-[(6-methoxy-1,3-benzothiazol-2-yl)oxy]phenyl}propanoic acid]
MIC [1, 5]: 25 µM (≈ 8.23 µg/mL) | concentrations at which not toxic, s. cerevisiae cytotoxicity [2]: ≥ 100 µM | IC50 ([3]; read-out: IC50): 10000 nM | concentrations at which not toxic, human fibroblast cytotoxicity [4]: ≥ 100 µM

CC(C(=O)O)c1ccc(Oc2nc3ccc(F)cc3s2)cc1 (stereo not shown) [NZ-329, 2-{4-[(6-fluoro-1,3-benzothiazol-2-yl)oxy]phenyl}propanoic acid]
MIC [1, 5]: 12 µM (≈ 3.81 µg/mL) | concentrations at which not toxic, s. cerevisiae cytotoxicity [2]: ≥ 100 µM | IC50 ([3]; read-out: IC50): 370 nM | concentrations at which not toxic, human fibroblast cytotoxicity [4]: ≥ 100 µM

CC(C)(Oc1ccc(Oc2nc3ccc(Cl)cc3s2)cc1)C(=O)O [NZ-318, 2-{4-[(6-chloro-1,3-benzothiazol-2-yl)oxy]phenoxy}-2-methylpropanoic acid]
MIC [1, 5]: 12 µM (≈ 4.37 µg/mL) | concentrations at which not toxic, s. cerevisiae cytotoxicity [2]: ≥ 100 µM | IC50 ([3]; read-out: IC50): 1500 nM | concentrations at which not toxic, human fibroblast cytotoxicity [4]: ≥ 100 µM

CC(C(=O)O)c1ccc(Oc2cnc3cc(Cl)ccc3n2)cc1 (stereo not shown) [NZ-309, 2-{4-[(6-chloroquinoxalin-2-yl)oxy]phenyl}propanoic acid]
MIC [1, 5]: 12 µM (≈ 3.95 µg/mL) | concentrations at which not toxic, s. cerevisiae cytotoxicity [2]: ≥ 100 µM | IC50 ([3]; read-out: IC50): 172 nM | concentrations at which not toxic, human fibroblast cytotoxicity [4]: ≥ 100 µM

CONC(=O)COc1ccc(Oc2cnc3cc(Cl)ccc3n2)cc1 [NZ-274, 2-{4-[(6-chloroquinoxalin-2-yl)oxy]phenoxy}-N-methoxyacetamide]
MIC [1, 5]: 0.173 µM (≈ 0.0622 µg/mL) | concentrations at which not toxic, s. cerevisiae cytotoxicity [2]: ≥ 100 µM | IC50 ([3]; read-out: IC50): 3700 nM | concentrations at which not toxic, human fibroblast cytotoxicity [4]: ≥ 100 µM

CONC(=O)COc1ccc(Oc2nc3ccc(F)cc3s2)cc1 [NZ-305, 2-{4-[(6-fluoro-1,3-benzothiazol-2-yl)oxy]phenoxy}-N-methoxyacetamide]
MIC [1, 5]: 3 µM (≈ 1.05 µg/mL) | concentrations at which not toxic, s. cerevisiae cytotoxicity [2]: ≥ 100 µM | inhibition at 15 µM ([3]; 15 uM): 50% | concentrations at which not toxic, human fibroblast cytotoxicity [4]: ≥ 100 µM

O=C(O)Cc1ccc(Oc2nc3ccc(Cl)cc3s2)cc1 [NZ-287, 2-{4-[(6-chloro-1,3-benzothiazol-2-yl)oxy]phenyl}acetic acid]
MIC [1, 5]: 12 µM (≈ 3.84 µg/mL) | concentrations at which not toxic, s. cerevisiae cytotoxicity [2]: ≥ 100 µM | IC50 ([3]; read-out: IC50): 520 nM | concentrations at which not toxic, human fibroblast cytotoxicity [4]: ≥ 100 µM

CC(C)NC(=O)Nc1ccc(Oc2nc3cc(F)c(F)cc3s2)cc1 [NZ-382, 1-{4-[(5,6-difluoro-1,3-benzothiazol-2-yl)oxy]phenyl}-3-(propan-2-yl)urea]
MIC [1]: Not Active | concentrations at which not toxic, s. cerevisiae cytotoxicity [2]: 50 to 100 µM | IC50 ([3]; read-out: IC50): 270 to 350 nM | concentrations at which not toxic, human fibroblast cytotoxicity [4]: ≥ 100 µM

CONC(=O)C(C)c1ccc(Oc2nc3ccc(F)cc3s2)cc1 (racemic) [NZ-330, 2-{4-[(6-fluoro-1,3-benzothiazol-2-yl)oxy]phenyl}-N-methoxypropanamide]
MIC [1, 5]: 1.5 µM (≈ 0.52 µg/mL) | concentrations at which not toxic, s. cerevisiae cytotoxicity [2]: ≥ 100 µM | IC50 ([3]; read-out: IC50): 240 nM | concentrations at which not toxic, human fibroblast cytotoxicity [4]: ≥ 100 µM

CCOC(=O)c1ccc2nc(Oc3ccc(NC(=O)NC(C)C)cc3)sc2c1 [NZ-378, ethyl 2-(4-{[(propan-2-yl)carbamoyl]amino}phenoxy)-1,3-benzothiazole-6-carboxylate]
MIC [1, 5]: 2.2 µM (≈ 0.879 µg/mL) | concentrations at which not toxic, s. cerevisiae cytotoxicity [2]: ≥ 100 µM | IC50 [3]: Not Active | concentrations at which not toxic, human fibroblast cytotoxicity [4]: ≥ 100 µM

CC(C)NC(=O)N(C)c1ccc(Oc2nc3ccc(Cl)cc3s2)cc1 [NZ-388, 1-{4-[(6-chloro-1,3-benzothiazol-2-yl)oxy]phenyl}-1-methyl-3-(propan-2-yl)urea]
MIC [1, 5]: 2.1 µM (≈ 0.789 µg/mL) | concentrations at which not toxic, s. cerevisiae cytotoxicity [2]: ≥ 100 µM | IC50 ([3]; read-out: IC50): 3000 nM | concentrations at which not toxic, human fibroblast cytotoxicity [4]: ≥ 100 µM

CC(C(=O)NCCO)c1ccc(Oc2nc3ccc(Cl)cc3s2)cc1 (stereo not shown) [NZ-370, 2-{4-[(6-chloro-1,3-benzothiazol-2-yl)oxy]phenyl}-N-(2-hydroxyethyl)propanamide]
MIC [1, 5]: 1.8 µM (≈ 0.678 µg/mL) | concentrations at which not toxic, s. cerevisiae cytotoxicity [2]: ≥ 100 µM | IC50 ([3]; read-out: IC50): 1000 nM | concentrations at which not toxic, human fibroblast cytotoxicity [4]: ≥ 100 µM

O=C(O)Cc1ccc(Oc2nc3ccc(F)cc3s2)cc1 [NZ-299, 2-{4-[(6-fluoro-1,3-benzothiazol-2-yl)oxy]phenyl}acetic acid]
MIC [1, 5]: 12 µM (≈ 3.64 µg/mL) | concentrations at which not toxic, s. cerevisiae cytotoxicity [2]: ≥ 100 µM | IC50 ([3]; read-out: IC50): 324 nM | concentrations at which not toxic, human fibroblast cytotoxicity [4]: ≥ 100 µM

CNC(=O)Cc1ccc(Oc2nc3ccc(F)cc3s2)cc1O [NZ-395, 2-{4-[(6-fluoro-1,3-benzothiazol-2-yl)oxy]-2-hydroxyphenyl}-N-methylacetamide]
MIC [1, 5]: 0.6 to 0.9 µM (≈ 0.199 to 0.299 µg/mL) | concentrations at which not toxic, s. cerevisiae cytotoxicity [2]: ≥ 100 µM | IC50 ([3]; read-out: IC50): 160 nM | concentrations at which not toxic, human fibroblast cytotoxicity [4]: ≥ 100 µM

COc1ccc2nc(Oc3ccc(NC(=O)NC(C)C)cc3)sc2c1 [NZ-361, 1-{4-[(6-methoxy-1,3-benzothiazol-2-yl)oxy]phenyl}-3-(propan-2-yl)urea]
MIC [1, 5]: 3.2 µM (≈ 1.14 µg/mL) | concentrations at which not toxic, s. cerevisiae cytotoxicity [2]: ≥ 100 µM | inhibition at 20 µM [3]: 19% | concentrations at which not toxic, human fibroblast cytotoxicity [4]: ≥ 100 µM

CNC(=O)C(C)c1ccc(Oc2nc3ccc(F)cc3s2)cc1 (stereo not shown) [NZ-386, 2-{4-[(6-fluoro-1,3-benzothiazol-2-yl)oxy]phenyl}-N-methylpropanamide]
MIC [1, 5]: 1.1 to 2.1 µM (≈ 0.363 to 0.694 µg/mL) | concentrations at which not toxic, s. cerevisiae cytotoxicity [2]: ≥ 100 µM | IC50 ([3]; read-out: IC50): 620 nM | concentrations at which not toxic, human fibroblast cytotoxicity [4]: ≥ 100 µM

CC(C)NC(=O)Nc1ccc(Oc2nc3ccc(O)cc3s2)cc1 [NZ-362, 1-{4-[(6-hydroxy-1,3-benzothiazol-2-yl)oxy]phenyl}-3-(propan-2-yl)urea]
MIC [1, 5]: 6.5 µM (≈ 2.23 µg/mL) | concentrations at which not toxic, s. cerevisiae cytotoxicity [2]: ≥ 100 µM | inhibition at 20 µM [3]: 20% | concentrations at which not toxic, human fibroblast cytotoxicity [4]: ≥ 100 µM

CON(C)C(=O)COc1ccc(Oc2cnc3cc(Cl)ccc3n2)cc1 [NZ-290, 2-{4-[(6-chloroquinoxalin-2-yl)oxy]phenoxy}-N-methoxy-N-methylacetamide]
MIC [1, 5]: 1.5 µM (≈ 0.561 µg/mL) | concentrations at which not toxic, s. cerevisiae cytotoxicity [2]: ≥ 100 µM | IC50 ([3]; read-out: IC50): 2500 nM | concentrations at which not toxic, human fibroblast cytotoxicity [4]: ≥ 100 µM
